Reference: patent US20140037721A1, “Pharmaceutical Composition” (Alpharma pharmaceuticals LLC, priority 2007, published 2014)
Counter-ions that a name gives are not always drawn.

What was measured:
[1] = in comparison to a 15 mg dose of hydrocodone
opioid receptors = conditions: cited from earlier work
[2] = cited from earlier work

Row | Compound | Equianalgesic Calculated Dose [1] | further results
1 | COc1ccc2c3c1O[C@H]1[C@@H](O)C=C[C@H]4[C@@H](C2)N(C)CC[C@@]341 [Codeine, codeine] | 90.0 mg | –
2 | COc1ccc2c3c1OC1C(=O)CC[C@H]4[C@@H](C2)N(C)CC[C@]314 (stereo partly drawn) [Hydrocodone, 4,5-epoxy-3-methoxy-17-methylmorphinan-6-one] | 15.0 mg | –
3 | CN1CC[C@]23CCCC[C@H]2[C@H]1Cc1ccc(O)cc13 [Levorphanol, levorphanol] | 1.8 mg | –
4 | CCC(=O)C(CC(C)N(C)C)(c1ccccc1)c1ccccc1 (stereo not drawn) [Methadone, methadone] | 9.0 mg | –
5 | COc1ccc2c3c1OC1C(=O)CC[C@@]4(O)[C@@H](C2)N(C)CC[C@]314 (stereo partly drawn) [Oxycodone, 4,5-epoxy-14-hydroxy-3-methoxy-17-methylmorphinan-6-one] | 13.5 mg | –
6 | C[C@H]1[C@H]2Cc3ccc(O)cc3[C@]1(C)CCN2CC1CC1 [cyclazocine] | – | duration of action after oral administration (opioid receptors; in vivo, po): ~24 h
7 | O=C1CC[C@@]2(O)[C@H]3Cc4ccc(O)c5c4[C@@]2(CCN3CC2CC2)[C@H]1O5 [hydrochloride salt of naltrexone, naltrexone hydrochloride] | – | solubility in water [2]: about 100 mg/cc
8 | O=C1CC[C@@]2(O)[C@H]3Cc4ccc(O)c5c4[C@@]2(CCN3CC2CC2)[C@H]1O5 [naltrexone] | – | blockade of morphine effects (opioid receptors; normal volunteers, three 100-mg doses, MS Contin): blocked
9 | meperidine | 135.0 mg | –
